Measured values published in PubChem BioAssay AID1419 (Emory University Molecular Libraries Screening Center, 2008).
The source made the active and inactive calls. No rule for the calls is given here.

Assay: EBV protein-peptide binding inhibitors, dose response, biochemical, fluorescence polarization (AID 1419)
Settings: cell-free protein-peptide binding, 2 h; for fold change: measured here: P channel fold over control, at 54 µM

Compound	IC50	fold change
CCOC(=O)c1c(=O)n(O)c2ccc(OC)cc2[n+]1[O-]	8.11 µM	1.8
CCN(CC)C(=O)COC(=O)c1cc(-c2ccco2)nc2ccccc12	28.4 µM	1.44
C=CCn1c(O)c(N=NC(=O)CNC(=O)/C=C/c2ccco2)c2ccccc21	> 54 µM (inactive)	0.747
CCC1=NN2C(=N)/C(=C\c3cccn3-c3ccc(Br)cc3)C(=O)N=C2S1	> 54 µM (inactive)	1.04
Cc1noc(/C=C/c2ccc(-c3ccccc3Cl)o2)c1[N+](=O)[O-]	13.2 µM	7.6
CCNc1cccc2c1C(=O)N(C)C2=O	0.96 µM	24.2
Fc1ccc(/C=N/NC2=Nc3cccc4cccc2c34)cc1	7.4 µM	3.32
Cc1ccc(NC(=O)/C(C#N)=C(\N)C(Cl)(Cl)Cl)nc1	0.53 µM	13
CCOC(=O)/C(C#N)=C\c1ccc(N2CCN(C/C=C/c3ccccc3)CC2)cc1	18.7 µM	16
Cc1cc(/C=C2\C(=O)NC(=O)N(c3cccc(Br)c3)C2=O)c(C)n1C	7.34 µM	9.43
CCCCCn1nc(-c2ccccc2)c2nc3ccccc3nc21	2.92 µM	33.5
Cc1cccn2c(=O)c(/C=C3\SC(=S)N(CC(C)C)C3=O)c(NCCCOC(C)C)nc12	> 54 µM (inactive)	1.37
CCCCN1C(=O)C2Cc3c([nH]c4ccccc34)CN2C1=S (configuration not stated)	2.73 µM	5.04
CCOC(=O)[C@@]1(C#N)C(c2ccc(Cl)c(Cl)c2)[C@H](C(N)=O)N2C=C(C(C)=O)C=C[C@H]21 (some centres not stated)	1.41 µM	9.48
Cc1ccc(C)c(S(=O)(=O)C(C#N)c2nc3ccccc3nc2N2CCCC2)c1 (configuration not stated)	4.06 µM	1.67
Cc1c(C#N)c2ncnc(-c3ccccc3)c2n1-c1ccccc1	> 54 µM (inactive)	1.02
CCCN1C(=O)c2cccc3c(N4CCCCC4)ccc(c23)C1=O	> 54 µM (inactive)	15.2
CCN(CC)CCN1C2=C(C(=O)CC(C)(C)C2)C(c2cccc(F)c2)C2=C1CC(C)(C)CC2=O	> 54 µM (inactive)	1.03
O=C1/C(=N\S(=O)(=O)c2cccs2)C([n+]2cccc(Cc3ccccc3)c2)=C([O-])c2ccccc21	7.66 µM	13.9

Compound	IC50	fold change
O=C1/C(=C/c2ccco2)Oc2c1ccc(O)c2CN1CCCCC1	1.93 µM	22.1
O=C(COC(=O)c1c2c(nc3ccccc13)/C(=C/c1ccco1)CC2)NC1CCCC1	> 54 µM (inactive)	2.02
Cc1c(N2C(=O)c3ccc4c5c(ccc(c35)C2=O)CC4)c(=O)n(-c2ccccc2)n1C	> 54 µM (inactive)	1.19
CCN(CC)c1ccc(/C=C(\C#N)C(=O)c2ccc(Br)cc2)cc1	2.69 µM	107
CCN(CC)C(=O)/C(=C\c1ccc(Br)cc1)NC(=O)c1ccccc1OC	4.67 µM	1.15
Cn1nc([N+](=O)[O-])c(C(C#N)c2nc3ccccc3n2C)c(Cl)c1=O (configuration not stated)	2.39 µM	2.35
CN(C)c1cccc(C(=O)OCc2cc(=O)oc3cc(O)ccc23)c1	> 54 µM (inactive)	1.01
CC(C)Oc1ccc(-c2nn(-c3ccccc3)cc2/C=c2\sc3ncnn3c2=O)cc1	1.43 µM	14.3
COC(=O)CCCCC1SCC(NC(=O)c2ccccc2)C1Cl (configuration not stated)	10.8 µM	2.16
COc1cc(/C=C2/C(=O)c3cccc([N+](=O)[O-])c3C2=O)c(Br)cc1O	> 54 µM (inactive)	0.647
O=C1NC(=O)N(Cc2ccco2)C(=O)/C1=C/c1ccc(-c2cccc([N+](=O)[O-])c2)o1	16.5 µM	2.15
CC(=O)Oc1ccc2c(c1)Oc1cc(OC(C)=O)ccc1C21OC(=O)c2ccccc21	< 0.42 µM	23.1
Cc1nn(C)cc1N1C(=O)c2cccc3c(N)ccc(c23)C1=O	< 0.42 µM	109
Cn1nc(-c2ccc(Cl)cc2)nc2c(=O)n(C)c(=O)nc1-2	7.16 µM	3.19
CCCCn1c(=O)[nH]c2nc3cc(NC(C)=O)ccc3nc2c1=O	3.91 µM	3.87
CN(C)c1ccc(Nc2c3c4c(cccc4n(C)c2=O)C(=O)c2ccccc2-3)cc1	> 54 µM (inactive)	1.1
COc1ccc(NC(=O)N(CCc2ccccc2)Cc2cc3c(C)cc(C)cc3[nH]c2=O)cc1	> 54 µM (inactive)	0.987
O=C(O)c1ccccc1C1=Nc2ccc(O)cc2Oc2cc(O)ccc21	< 0.42 µM	14.2
N#CC(c1nc2ccccc2nc1N1CCCC1)S(=O)(=O)c1ccccc1 (configuration not stated)	> 54 µM (inactive)	1.79

Compound	IC50	fold change
Cn1cc(/C=C2\SC(=O)NC2=S)c2ccccc21	> 54 µM (inactive)	2.12
COC(=O)[C@@]1(C#N)[C@@H]2C=CC(C(C)=O)=CN2[C@@H](C(N)=O)[C@@H]1c1ccc(F)cc1	1.05 µM	10.2
Clc1ccc(C2=CC(c3ccco3)n3ncnc3N2)cc1 (configuration not stated)	3.9 µM	3.17
Cc1ccc(C2C(C(=O)c3ccco3)=C(O)C(=O)N2c2nnc(C)s2)cc1 (configuration not stated)	> 54 µM (inactive)	1.75
COc1ccc(C(=O)c2sc3nc(C)cc(-c4cccs4)c3c2N)cc1OC	16.5 µM	7.43
O=C(CSc1nnc(SCc2ccccc2)s1)N/N=C/C=C\c1ccco1	> 54 µM (inactive)	1.04
Cn1c(SCC(=O)Nc2ccc3nc(SCC(=O)N4CCCC4)sc3c2)nnc1-c1ccccc1	> 54 µM (inactive)	1.08
COc1ccc(-c2nnc(-c3cc4c(ccc5ccccc54)oc3=O)o2)cc1	12.9 µM	4.21
Cc1c(N=C2N=C(NC(=O)c3cccs3)c3ccccc32)c(=O)n(-c2ccccc2)n1C	3.19 µM	4.49
c1ccc(-c2[nH]c(-c3ccccc3)[n+](CC3CO3)c2-c2ccccc2)cc1 (configuration not stated)	> 54 µM (inactive)	0.99
COc1ccc(S(=O)(=O)c2c(N)n(Cc3ccco3)c3nc4ccccc4nc23)cc1	9.62 µM	1.74
COC(=O)c1ccc(C)c(NC(=O)CCSc2ccc(Cl)cc2)c1	> 54 µM (inactive)	1.15
O=C1C2CC=C(Cl)CC2C(=O)N1CCCCCCN1C(=O)C2CC=C(Cl)CC2C1=O (configuration not stated)	6.72 µM	1.89
Cc1nn(-c2ccccc2)c2c1C(c1ccc(O)c(O)c1)N1C(=N2)C(Nc2ccccc2)=Nc2ccccc21 (configuration not stated)	6.05 µM	3.94
OCCCc1nc2n(n1)C(c1cccs1)C=C(c1ccc(Br)cc1)N2 (configuration not stated)	< 0.42 µM	37.6
CC(=O)n1c(C=Nc2ccc(Cl)cc2)c(O)c2ccccc21	1.09 µM	31.8
CCN(c1ccc(N=Cc2c(O)n(Cc3ccc(OC)cc3)c(=O)c3ccccc23)cc1)C(C)C	2.17 µM	132
Cc1cccc(N=Nc2c(O)[nH]c3ccc(F)cc23)c1	2.03 µM	12
